Measured values as given in patent US20060020036A1, “Methods and compositions to promote bone homestasis” (priority 2004, published 2006).
Entries after “also recorded” stand apart in the source; their conditions may differ.

Legend:
[1] = target: T1, GPR65 (Homo sapiens, UniProt Q8IYL9); test: AP assay: MPCs infected with Ad-GPR65 and treated with ligand; type: cell-based; settings: ligand at different concentrations
T1 construct: amplification of the complete open reading frame from ATG start codon to the stop codon of drugable genes; expressed in transfected cells; host or cells: primary human mesenchymal progenitor cells (MPCs), transduced with Ad-GPR65 and Ad-hCAR
T1 sequence (Q8IYL9 whole entry): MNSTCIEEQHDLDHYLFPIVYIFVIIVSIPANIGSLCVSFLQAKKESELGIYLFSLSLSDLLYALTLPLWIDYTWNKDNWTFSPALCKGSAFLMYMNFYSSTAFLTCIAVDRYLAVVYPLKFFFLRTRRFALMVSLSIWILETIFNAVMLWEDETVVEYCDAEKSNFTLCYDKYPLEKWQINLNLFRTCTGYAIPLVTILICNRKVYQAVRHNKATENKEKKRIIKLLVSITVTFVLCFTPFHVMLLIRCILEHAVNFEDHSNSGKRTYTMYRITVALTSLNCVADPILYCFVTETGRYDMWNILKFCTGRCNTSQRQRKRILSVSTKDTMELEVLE
Protocol: These dose-response curves are depicted in FIG. 5. A dose-response curve for AP activity is generated for MPCs infected with Ad-NR1H3 and treated with T0901317 (FIG. 5A). MPCs are seeded on day 0 at 1000 cells per well of a 384 well plate and co-infected the next day using AdC51-hCAR (MOI 250) and different MOIs of Ad5-NR1H3 (MOI 12000, 4000, 1333, 444). On day 1, 5 concentrations (1E-10M, 1E-9M, 1E-8M, 1E-7M, 1E-6M) of the compound T0901317 (Cayman Chemical, Michigan, USA, Cat. No. 71810) with fixed vehicle concentration (the vehicle is DMSO at the concentration is 0.01%) are added to the wells. After incubation for 6 days at 37° C., 10% CO2 in a humidified incubator, up-regulation of alkaline phosphatase is read: 15 μl MUP is added to each well, the plates are incubated for 15 min at 37° C. and monitored for AP activity using a fluorescence plate reader (Fluostar, BMG).
Dose-response curves for AP activity are generated in a similar way for MPCs infected with Ad-GPR65 and treated with 1-b-D-Galactosylsphingosine (FIG. 5B); for MPCs infected with Ad-AVPR2 and treated with [deamino-Cysl, D-Arg8]-Vasopressin (DDAVP) (FIG. 5C).

[2] = tested on: NR5A2 mRNA; test: Up-regulation of NR5A2 and NR1H3 mRNA levels by osteogenic triggers in MPCs; type: cell-based, human; settings: final concentration 0.1 μM, vs vehicle, several time points
Protocol: 100,000 MPCs are seeded in each well of a 6 well plate in 2 ml MPC medium, containing 10% FCS. The next day, after incubation at 37° C., 10% CO2 in a humidified incubator, cells are co-infected with AdC15-hCAR (final MOI of 750) and Ad-BMP2, Ad-RUNX2, Ad-MSX2, Ad-PTHR1/PTHLH or Ad-eGFP or Ad-luciferase as negative controls (final MOIs of 1250 and 2500). Alternatively, cells are treated with dexamethasone (final concentration 0.1 μM), VitD3 (final concentration 0.1 μM) or the vehicle controls (0.1% EtOH or DMSO). Cells are incubated at 37° C., 10% CO2 in a humidified incubator for a further six days unless cells are already harvested for RNA isolation. Virus is removed and replaced by 2 ml fresh OS medium (proprietary medium containing 10% FCS). Over the next 18 days, medium is refreshed 3 times per 2 weeks. Every other time, medium is refreshed half or completely. […] The fold up-regulation of NR5A2 or NR1H3 mRNA compared to negative controls (vehicle for dexamethasone or VitD3 treatment) or Ad-luciferase for Ad-infections) is calculated (FIG. 16).

[3] = tested on: calvarial skull bones (hemicalvaria); test: Calvarial skull assay (bone organ culture); type: cell-based, CD1 mice
Protocol: CD1 pups are harvested around birth from CD1 female mice (received from Janvier (Le Genest St Isle, France) when they were 11 days pregnant). Pups are decapitated and the calvarial skull is dissected and split into 2 hemicalvaria. Hemicalvaria are blotted using sterile gauze, weighed and cultured in 24 well plates (MEMalpha or BGJb-Fitton-Jackson medium containing 50 μg/ml L-ascorbic acid (Sigma, A-4034), 5 mM β-glycerophosphate (Sigma, G-9891) and Penicillin-Streptomycin (Invitrogen Cat # 15140-122)). Small molecules (ligands, agonists, antagonists) are tested in at least three-fold at a minimum of 3 concentrations. Each small molecule is added to the medium on day 0 and added again when refreshing the medium (every 2-3 days). Three to 16 days after the start of the experiment, skulls are weighed again after blotting them dry using sterile gauze. The weight difference is calculated, expressed as percent weight change and the mean and standard deviations (SD) are calculated for the triplicate measurements. Data are analyzed using the Student's t-test.
The formation of new osteoid is analyzed histologically as follows: hemicalvaria are fixed in 10% buffered formalin for at least 2 days, decalcified in 10% EDTA overnight, processed through graded alcohols and embedded in paraffin wax. Three to 10 μm sections are prepared of the calvaria and stained with hematoxylin and eosin (H&E). Healthy cells, dead cells, old and new bone, and collagen are identified by their distinctive morphology and colouring observed after H&E staining. The surfaces taken by these are measured stereologically (μm^2 readout) and termed Osteoblast area, Debris area, Native and New bone area, Collagen area and Total area (sum of the previous 5 areas), respectively. In addition, the thickness (μm readout) is measured at 8 positions, evenly spaced over the section.
The histological readout of the calvarial skull assay is developed using known osteogenic agents. Hemicalvaria were treated with recombinant human parathyroid hormone (rhPTH).
T0901317 is added to the culture medium of the dissected hemicalvaria at the day of dissection at several doses (19.5, 78.1 and 313 nM), in fourfold. The concentration of the solvent (vehicle), DMSO, is fixed at a final concentration of 0.05%. The medium, containing T0901317 or vehicle control is refreshed every 2-3 days. Hemicalvaria are harvested 7 days after the initiation of the experiment and subjected to the histological analysis described above.

CCCCCCCCCCCCCC=CC(O)C(N)CO[C@@H]1O[C@H](CO)[C@H](O)[C@H](O)[C@H]1O (stereo partly drawn) [1-b-D-Galactosylsphingosine]
up-regulation of endogenous alkaline phosphatase (AP) activity, dose-response [1]: dose-dependently increase the up-regulation of the endogenous alkaline phosphatase activity; also recorded: dose-dependent up-regulation of AP activity

C=C1CC[C@H](O)C/C1=C/C=C1\CCC[C@]2(C)[C@@H]([C@H](C)CCCC(C)C)CC[C@@H]12 [VitD3]
NR5A2 mRNA levels [2]: up-regulated

B1: PTH: recombinant human parathyroid hormone, known osteogenic agent (protein, UniProt P01270 32-115, looked up)
Parathyroid hormone: SVSEIQLMHNLGKHLNSMERVEWLRKKLQDVHNFVALGAPLAPRDAGSQRPRKKEDNVLVESHEKSLGEADKADVNVLTKAKSQ
modifications: Parathyroid hormone
notes: recombinant human parathyroid hormone, known osteogenic agent
effect on bone tissue ([3]; 10^−7 M): resorptive effect on bone tissue
effect on bone tissue ([3]; 10^−11 M): induces bone build-up
